Assay results from paper PMC5672791 (Journal of medicinal chemistry, 2015).
Like-named read-outs stand apart in the source and are kept apart here. Blank lines part the entries; values can stand above or below the molecule they belong to. Where a SMILES comes first, the peptide text is derived from it. Bridges are numbered along the chain shown (N, C = ends). Where no end group is shown, it is not given here. [ ]: non-standard residue; d: D form. Bip = N[C@@H](Cc1ccc(-c2ccccc2)cc1)C(=O)O

Assays:
mMC1R [1] = target: T1, mMC1R (Mus musculus, UniProt Q01727); assay: cAMP based β-galactosidase reporter assay, agonist activity at mMC1R; type: cell-based
T1 sequence (Q01727 whole entry): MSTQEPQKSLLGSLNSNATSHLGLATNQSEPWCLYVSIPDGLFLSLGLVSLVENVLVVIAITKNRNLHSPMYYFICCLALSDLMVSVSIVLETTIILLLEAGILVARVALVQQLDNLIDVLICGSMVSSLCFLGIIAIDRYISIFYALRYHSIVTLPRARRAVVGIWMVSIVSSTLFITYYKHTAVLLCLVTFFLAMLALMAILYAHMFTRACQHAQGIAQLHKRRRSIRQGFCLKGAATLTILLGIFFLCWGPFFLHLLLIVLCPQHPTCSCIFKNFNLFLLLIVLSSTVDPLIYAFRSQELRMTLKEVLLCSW

mMC4R [2] = target: T2, mMC4R (Mus musculus, UniProt P56450); type: cell-based
mMC3R [3] = target: T3, mMC3R (Mus musculus, UniProt P33033); type: cell-based
mMC4R [4] = target: T2, mMC4R; details: cited from earlier work; for Ki: read-out: mMC4R Ki, Ki=10^-pA2, previously reported values
mMC3R [5] = target: T3, mMC3R; details: cited from earlier work
mMC5R = mMC5R (Mus musculus, UniProt P41149); details: read-out: mMC5R Agonist EC50; previously reported values; cited from earlier work
Sequence of mMC5R (P41149 whole entry): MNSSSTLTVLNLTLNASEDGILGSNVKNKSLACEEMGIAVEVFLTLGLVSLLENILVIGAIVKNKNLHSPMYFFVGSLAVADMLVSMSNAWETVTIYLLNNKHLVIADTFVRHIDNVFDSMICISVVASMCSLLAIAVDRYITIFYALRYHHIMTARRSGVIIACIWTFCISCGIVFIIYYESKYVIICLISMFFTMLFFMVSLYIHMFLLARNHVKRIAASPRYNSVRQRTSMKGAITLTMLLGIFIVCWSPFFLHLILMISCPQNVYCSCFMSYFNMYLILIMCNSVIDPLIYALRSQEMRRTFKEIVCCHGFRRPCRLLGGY

mMC1R [6] = target: T1, mMC1R; details: read-out: mMC1R Agonist EC50; previously reported values; cited from earlier work
mMC3R (Mus musculus) = mMC3R (Mus musculus) (UniProt P33033); assay: Schild analysis; details: cited from earlier work
mMC4R (Mus musculus) = mMC4R (Mus musculus) (UniProt P56450); assay: Schild analysis; details: cited from earlier work
mMC3R [7] = target: T4, mMC3R (Mus musculus, UniProt P33033); assay: Schild analysis
T4 chain: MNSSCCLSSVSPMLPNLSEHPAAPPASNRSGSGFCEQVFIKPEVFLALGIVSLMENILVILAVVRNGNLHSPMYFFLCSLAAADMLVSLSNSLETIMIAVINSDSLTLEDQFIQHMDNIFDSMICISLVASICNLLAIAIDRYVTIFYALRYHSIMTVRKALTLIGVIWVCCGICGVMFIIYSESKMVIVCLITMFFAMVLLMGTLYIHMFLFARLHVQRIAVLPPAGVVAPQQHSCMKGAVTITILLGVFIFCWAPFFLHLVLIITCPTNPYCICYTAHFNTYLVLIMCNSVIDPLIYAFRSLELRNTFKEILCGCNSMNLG

mMC4R [8] = target: T5, mMC4R (Mus musculus, UniProt P56450); assay: Schild analysis
T5 chain: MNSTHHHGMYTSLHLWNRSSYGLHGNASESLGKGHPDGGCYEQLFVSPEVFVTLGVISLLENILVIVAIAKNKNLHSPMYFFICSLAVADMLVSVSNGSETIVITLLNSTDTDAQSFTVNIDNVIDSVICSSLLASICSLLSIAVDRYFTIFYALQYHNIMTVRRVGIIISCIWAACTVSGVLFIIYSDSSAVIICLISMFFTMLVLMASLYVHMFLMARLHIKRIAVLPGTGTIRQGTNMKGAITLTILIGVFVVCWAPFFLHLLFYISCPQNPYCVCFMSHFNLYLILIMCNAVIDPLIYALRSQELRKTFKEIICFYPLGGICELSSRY

Molecule: C[C@@H]1NC(=O)[C@H](CCCCN)NC(=O)[C@H](Cc2ccccc2)NC(=O)[C@H](Cc2ccccc2)NC(=O)[C@H](CCCNC(=N)N)NC(=O)[C@@H]2CCCN2C(=O)[C@H]2CCCN2C(=O)[C@H](Cc2ccccc2)NC1=O [Peptide 25, c[Pro-Arg-Phe-Phe-Lys-Ala-Phe-DPro]]
- fold increased antagonist potency at the mMC4R compared to 6 (mMC4R [2]): 4 fold

Molecule: C[C@@H]1NC(=O)[C@H](CCCNC(=N)N)NC(=O)[C@H](Cc2ccccc2)NC(=O)[C@H](Cc2ccccc2)NC(=O)[C@H](CCCNC(=N)N)NC(=O)[C@@H]2CCCN2C(=O)[C@H]2CCCN2C(=O)[C@H](Cc2ccccc2)NC1=O [Peptide 26, c[Pro-Arg-Phe-Phe-Arg-Ala-Phe-DPro]] (cyclo(RFFRAF[dP]P))
- fold increased antagonist potency at the mMC4R compared to 6 (mMC4R [2]): 5 fold

Molecule: TAYCRFFNAFCYAR-NH2 (disulfide 4-11) [hAGRP(107-120)]
- mMC4R antagonist pA2 (mMC4R [4]): 6.6
- mMC3R antagonist pA2 (mMC3R [5]): 6.1

Molecule: Tyr-c[Cys-Arg-Phe-Phe-Asn-Ala-Phe-Cys]-Tyr (YCRFFNAFCY; bridge 2-9; not fully specified (bridges)) [hAGRP (109-118)]
- EC50 (mMC5R): > 100000 nM
- Ki (mMC4R [4]): 160 nM
- EC50 (mMC1R [6]): 5100 ± 3000 nM

Molecule: YCRFFNAFCY (disulfide 2-9) [hAGRP (109-118)]
- mMC4R antagonist pA2 (mMC4R [4]): 6.8
- mMC4R antagonist pA2 (mMC4R [4]; previously reported values): 6.8±0.2

Molecule: hAGRP (87–132): C-terminal domain of human Agouti-related protein, stabilized by five disulfide bonds
- EC50 (mMC5R): > 100000 nM
- mMC4R antagonist pA2 (mMC4R [4]): 9.4
- mMC4R antagonist pA2 (mMC4R [4]; previously reported values): 9.4±1.0
- Ki (mMC4R [4]): 0.4 nM
- mMC3R antagonist pA2 (mMC3R [5]): 8.9
- mMC3R antagonist pA2 (mMC3R [5]; previously reported values): 8.9±0.2
- EC50 (mMC1R [6]): > 100000 nM

Molecule: hAGRP(87-132) 87-132 (from UniProt O00253)
- Ki (mMC3R (Mus musculus)): 1.3 nM
- Ki (mMC4R (Mus musculus)): 0.4 nM

Molecule: hAGRP(109-118)
- Ki (mMC4R (Mus musculus)): 160 nM

Molecule: miniAGRP (87-120): engineered minimized derivative of AGRP(87-132) with 4 disulfide bonds and the C-terminal 12 residues removed (CVRLHESCLGQQVPCCDPAATCYCRFFNAFCYCR)
- EC50 (mMC5R): > 100000 nM
- EC50 (mMC1R [6]): > 100000 nM

Molecule: miniAGRP(87-120) 87-120 (from UniProt O00253)
- Ki (mMC3R (Mus musculus)): 7.9 nM
- Ki (mMC4R (Mus musculus)): 3.2 nM

Molecule: cyclo(PRFFGAF[dP]) [peptide 21]
- Ki (mMC4R [8]): 4 nM

Molecule: cyclo(PRFFRAF[dP]) [peptide 26]
- Ki (mMC3R [7]): 200 nM
- Ki (mMC4R [8]): 4 nM

Further lines, results first:

- fold more potent agonist at the mMC1R compared to 6 (mMC1R [1]): 5 fold
- fold decreased antagonist potency at the mMC4R compared to 6 (mMC4R [2]): 8 fold
Molecule: C[C@@H]1NC(=O)[C@H](CC(N)=O)NC(=O)[C@H](Cc2ccccc2)NC(=O)[C@H](Cc2ccc(-c3ccccc3)cc2)NC(=O)[C@H](CCCNC(=N)N)NC(=O)[C@@H]2CCCN2C(=O)[C@H]2CCCN2C(=O)[C@H](Cc2ccccc2)NC1=O [Peptide 7, c[Pro-Arg-Bip-Phe-Asn-Ala-Phe-DPro]] (cyclo(R[Bip]FNAF[dP]P))

- no activity at the mMC3R up to (concentration) (mMC3R [3]): > 100 µM
- no activity at the mMC4R up to (concentration) (mMC4R [2]): > 100 µM
Molecule: C[C@@H]1NC(=O)[C@H](CC(N)=O)NC(=O)[C@H](Cc2ccccc2)NC(=O)[C@@H]2Cc3ccccc3CN2C(=O)[C@H](CCCNC(=N)N)NC(=O)[C@@H]2CCCN2C(=O)[C@H]2CCCN2C(=O)[C@H](Cc2ccccc2)NC1=O [Peptide 8, c[Pro-Arg-Tic-Phe-Asn-Ala-Phe-DPro]]

- fold decreased antagonist potency at the mMC4R compared to 6 (mMC4R [2]): 5 fold
Molecule: C[C@@H]1NC(=O)[C@H](CC(N)=O)NC(=O)[C@H](Cc2ccccc2)NC(=O)[C@H](CCc2ccccc2)NC(=O)[C@H](CCCNC(=N)N)NC(=O)[C@@H]2CCCN2C(=O)[C@H]2CCCN2C(=O)[C@H](Cc2ccccc2)NC1=O [Peptide 10, c[Pro-Arg-hPhe-Phe-Asn-Ala-Phe-DPro]]

- fold decreased antagonist potency at the mMC4R compared to 6 (mMC4R [2]): 5 fold
Molecule: C[C@@H]1NC(=O)[C@H](CC(N)=O)NC(=O)[C@H](Cc2ccccc2)NC(=O)[C@H](Cc2ccc3ccccc3c2)NC(=O)[C@H](CCCNC(=N)N)NC(=O)[C@@H]2CCCN2C(=O)[C@H]2CCCN2C(=O)[C@H](Cc2ccccc2)NC1=O [Peptide 13, c [Pro-Arg-Nal(2′)-Phe-Asn-Ala-Phe-DPro]]

- no activity at the mMC3R up to (concentration) (mMC3R [3]): > 100 µM
- fold more potent agonist at the mMC1R compared to 6 (mMC1R [1]): 10 fold
- fold decreased antagonist potency at the mMC4R compared to 6 (mMC4R [2]): 8 fold
Molecule: C[C@@H]1NC(=O)[C@H](CC(N)=O)NC(=O)[C@H](Cc2ccc(-c3ccccc3)cc2)NC(=O)[C@H](Cc2ccccc2)NC(=O)[C@H](CCCNC(=N)N)NC(=O)[C@@H]2CCCN2C(=O)[C@H]2CCCN2C(=O)[C@H](Cc2ccccc2)NC1=O [Peptide 14, c[Pro-Arg-Phe-Bip-Asn-Ala-Phe-DPro]]

- no activity at the mMC3R up to (concentration) (mMC3R [3]): > 100 µM
- no activity at the mMC4R up to (concentration) (mMC4R [2]): > 100 µM
Molecule: C[C@@H]1NC(=O)[C@H](CC(N)=O)NC(=O)[C@@H]2Cc3ccccc3CN2C(=O)[C@H](Cc2ccccc2)NC(=O)[C@H](CCCNC(=N)N)NC(=O)[C@@H]2CCCN2C(=O)[C@H]2CCCN2C(=O)[C@H](Cc2ccccc2)NC1=O [Peptide 15, c[Pro-Arg-Phe-Tic-Asn-Ala-Phe-DPro]]

- no activity at the mMC3R up to (concentration) (mMC3R [3]): > 100 µM
- fold decreased potency at the mMC1R compared to 6 (mMC1R [1]): 4 fold
- fold decreased antagonist potency at the mMC4R compared to 6 (mMC4R [2]): 65 fold
Molecule: C[C@@H]1NC(=O)[C@H](CC(N)=O)NC(=O)[C@H](c2ccccc2)NC(=O)[C@H](Cc2ccccc2)NC(=O)[C@H](CCCNC(=N)N)NC(=O)[C@@H]2CCCN2C(=O)[C@H]2CCCN2C(=O)[C@H](Cc2ccccc2)NC1=O [Peptide 16, c[Pro-Arg-Phe-Phg-Asn-Ala-Phe-DPro]]

- fold decreased antagonist potency at the mMC3R compared to 6 (mMC3R [3]; compared to 6): 6 fold
Molecule: C[C@@H]1NC(=O)[C@H](CC(N)=O)NC(=O)[C@H](Cc2cccc3ccccc23)NC(=O)[C@H](Cc2ccccc2)NC(=O)[C@H](CCCNC(=N)N)NC(=O)[C@@H]2CCCN2C(=O)[C@H]2CCCN2C(=O)[C@H](Cc2ccccc2)NC1=O [Peptide 19, c[Pro-Arg-Phe-Nal(1′)-Asn-Ala-Phe-DPro]]

- no activity at the mMC3R up to (concentration) (mMC3R [3]): > 100 µM
Molecule: C[C@@H]1NC(=O)[C@H](CC(N)=O)NC(=O)[C@H](Cc2ccc3ccccc3c2)NC(=O)[C@H](Cc2ccccc2)NC(=O)[C@H](CCCNC(=N)N)NC(=O)[C@@H]2CCCN2C(=O)[C@H]2CCCN2C(=O)[C@H](Cc2ccccc2)NC1=O [Peptide 20, c[Pro-Arg-Phe-Nal(2′)-Asn-Ala-Phe-DPro]]

- fold increased antagonist potency at the mMC3R compared to 6 (mMC3R [3]; compared to 6): 16 fold
- fold increased antagonist potency at the mMC4R compared to 6 (mMC4R [2]): 5 fold
Molecule: C[C@@H]1NC(=O)CNC(=O)[C@H](Cc2ccccc2)NC(=O)[C@H](Cc2ccccc2)NC(=O)[C@H](CCCNC(=N)N)NC(=O)[C@@H]2CCCN2C(=O)[C@H]2CCCN2C(=O)[C@H](Cc2ccccc2)NC1=O [Peptide 21, c[Pro-Arg-Phe-Phe-Gly-Ala-Phe-DPro]]

- Ki (mMC3R [7]): 100 nM
- Ki (mMC4R [8]): 5 nM
Molecule: cyclo(PRFFKAF[dP]) [peptide 25]

- Ki (mMC3R [7]): 1300 nM
B1: peptide 5 (peptide)
chain: cyclo(PYTRFFNAFTY[dP])
SMILES: C[C@@H]1NC(=O)[C@H](CC(N)=O)NC(=O)[C@H](Cc2ccccc2)NC(=O)[C@H](Cc2ccccc2)NC(=O)[C@H](CCCNC(=N)N)NC(=O)[C@H]([C@@H](C)O)NC(=O)[C@H](Cc2ccc(O)cc2)NC(=O)[C@@H]2CCCN2C(=O)[C@H]2CCCN2C(=O)[C@H](Cc2ccc(O)cc2)NC(=O)[C@H]([C@@H](C)O)NC(=O)[C@H](Cc2ccccc2)NC1=O
